Values after ≈ are worked out from the molar mass of the structure shown. Where a name gives a salt, the structure may show the parent alone. Read-outs that look alike come from different tables or passages of the source.
Experiments:
[1] = biological target: alanine racemase enzyme from P. aeruginosa (Pseudomonas aeruginosa, UniProt Q9HTQ2, A178S/N326M/S138R/S262R); experiment: biochemical; conditions: for inhibition at 2500 µM: read-out: In % (percent inhibition of alanine racemase)
[2] = biological target: alanine racemase enzyme from E. Coli (Escherichia coli, UniProt P0A6B4); experiment: biochemical; conditions: for inhibition at 2500 µM: read-out: In % (percent inhibition of alanine racemase)
alanine racemase enzyme from E. Coli, sequence (P0A6B4 whole entry): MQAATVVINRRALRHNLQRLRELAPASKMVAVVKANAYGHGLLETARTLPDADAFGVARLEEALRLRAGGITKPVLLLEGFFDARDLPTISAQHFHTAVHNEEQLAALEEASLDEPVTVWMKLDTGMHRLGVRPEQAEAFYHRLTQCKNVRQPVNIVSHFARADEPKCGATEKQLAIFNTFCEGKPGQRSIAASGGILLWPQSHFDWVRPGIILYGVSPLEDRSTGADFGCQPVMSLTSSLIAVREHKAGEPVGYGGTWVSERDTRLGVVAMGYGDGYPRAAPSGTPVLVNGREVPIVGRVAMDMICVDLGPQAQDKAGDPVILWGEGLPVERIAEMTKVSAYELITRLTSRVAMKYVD

[3] = biological target: T1, alanine racemase enzyme from S. aureus (Staphylococcus aureus, UniProt P63479); experiment: biochemical; conditions: for inhibition at 2500 µM: read-out: In % (percent inhibition of alanine racemase)
T1 sequence (P63479 1-382): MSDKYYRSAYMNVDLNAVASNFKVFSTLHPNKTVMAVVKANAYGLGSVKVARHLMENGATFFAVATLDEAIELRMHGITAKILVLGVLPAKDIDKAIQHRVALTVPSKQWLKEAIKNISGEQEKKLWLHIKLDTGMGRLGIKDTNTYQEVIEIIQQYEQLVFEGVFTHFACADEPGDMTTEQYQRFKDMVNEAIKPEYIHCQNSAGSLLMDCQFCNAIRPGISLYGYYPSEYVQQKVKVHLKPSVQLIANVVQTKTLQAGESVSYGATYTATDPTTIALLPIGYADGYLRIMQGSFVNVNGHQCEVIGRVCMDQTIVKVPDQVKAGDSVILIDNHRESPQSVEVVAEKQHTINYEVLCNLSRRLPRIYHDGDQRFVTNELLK

[4] = test system: S. aureus; experiment: microbe, parasite or virus in culture; type: cell-based
[5] = test system: E. Coli; experiment: microbe, parasite or virus in culture; type: cell-based
[6] = biological target: alanine racemase enzyme from M. tuberculosis (Mycobacterium tuberculosis, UniProt P9WQA9, DEL103-104); type: biochemical
alanine racemase enzyme from M. tuberculosis, sequence (P9WQA9 whole entry, looked up, stated change not applied): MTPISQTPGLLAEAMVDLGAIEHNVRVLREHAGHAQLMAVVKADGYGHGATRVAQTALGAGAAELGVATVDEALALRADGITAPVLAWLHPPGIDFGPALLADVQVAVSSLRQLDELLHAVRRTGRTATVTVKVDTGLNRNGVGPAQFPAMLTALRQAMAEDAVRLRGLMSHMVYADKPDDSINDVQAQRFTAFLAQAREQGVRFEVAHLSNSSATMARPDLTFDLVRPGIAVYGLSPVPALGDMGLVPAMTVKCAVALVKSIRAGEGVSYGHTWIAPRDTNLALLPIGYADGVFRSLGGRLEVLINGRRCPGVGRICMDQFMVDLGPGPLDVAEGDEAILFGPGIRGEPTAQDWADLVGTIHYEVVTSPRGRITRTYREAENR

[7] = test system: M. tuberculosis; experiment: microbe, parasite or virus in culture; type: cell-based
[8] = test system: M. tuberculosis; type: cell-based
[9] = P. aeruginosa ALR, % Inhibition at 2.5 mM
[10] = P. aeruginosa ALR, read-out: Ki
[11] = E. Coli ALR, % Inhibition at 2.5 mM
[12] = S. aureus ALR, % Inhibition at 2.5 mM
[13] = Staphylococcus aureus, read-out: MIC
[14] = Mycobacterium tuberculosis, MGIT Assay, read-out: MIC
[15] = TB Assay of Hydroxamate Candidates, DMSO control 7, Water control 8
[16] = Escherichia coli, read-out: MIC

alanine racemase enzyme from P. aeruginosa, sequence (Q9HTQ2 whole entry S138R/A178S/S262R/N326M): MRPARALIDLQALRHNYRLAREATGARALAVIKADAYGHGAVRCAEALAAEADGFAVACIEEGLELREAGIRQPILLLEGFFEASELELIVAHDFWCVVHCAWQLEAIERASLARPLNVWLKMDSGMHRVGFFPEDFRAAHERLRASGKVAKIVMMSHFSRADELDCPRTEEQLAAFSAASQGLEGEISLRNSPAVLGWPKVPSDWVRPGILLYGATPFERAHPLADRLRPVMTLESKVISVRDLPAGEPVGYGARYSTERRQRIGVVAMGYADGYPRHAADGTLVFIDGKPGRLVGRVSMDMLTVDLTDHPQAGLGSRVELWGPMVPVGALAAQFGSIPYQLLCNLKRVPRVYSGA

Compound | Ki ([1]; Ki) | inhibition at 2500 µM [1] | Ki ([2]; Ki) | inhibition at 2500 µM [2] | Ki ([3]; S. aureus ALR, read-out: Ki) | inhibition at 2500 µM [3] | MIC ([5]; Escherichia coli) | % In in TB-ALR-assay [6] | In % (percent inhibition of alanine racemase) [6] | inhibition at 2500 µM [1, 9] | Ki [1, 10] | inhibition at 2500 µM [2, 11] | Ki ([2]; E. Coli ALR, read-out: Ki) | inhibition at 2500 µM [3, 12] | MIC [4, 13] | MIC [7, 14] | Days of Detection [8, 15] | MIC [5, 16] | In % (percent inhibition of alanine racemase) [1, 9] | MIC [4] | further results
CNCC(=O)NO [CH3NHCH2C(O)NHOH, Sarcosine Hydroxamic Acid] | 18200 µM | 24 ± 5% | 5700 µM | 34 ± 12% | 14300 µM | 28 ± 5% | > 5 mM | 81% | 81 ± 7% |  |  |  |  |  |  |  |  |  |  |  | MIC ([4]; Staphylococcus aureus): > 5 mM; MIC ([7]; Mycobacterium tuberculosis): 200 µg/mL (≈ 1920 µM); melting point: 140 to 141 °C; Days of Detection [8]: 32.5 days
N[C@@H]1CON=C1O [D-cycloserine, reference compound] |  |  |  |  | 10 µM |  |  | 96% | 93% | 95% | 10 µM | 93% | 10 µM | 94% | 0.2 mM (≈ 20.4 µg/mL) | < 12.5 µg/mL | >40 days |  |  |  | 
NC(=O)C(=O)NO [H2NC(O)C(O)NHOH, N-Hydroxyoxalamide] |  |  |  |  | 17 µM |  |  | 93% | 93 ± 8% | 99 ± 4% | 16 µM | 97 ± 4% | 52 µM | 97% | > 5 mM | 50 µg/mL (≈ 480 µM) | 32 days | > 5 mM |  |  | 
NCC(=O)NO [H2NCH2C(O)NHOH, glycine hydroxamic acid] |  |  |  |  | 90 µM |  |  | 100% | 100 ± 1% |  | 65 µM |  | 39 µM |  |  | 50 µg/mL (≈ 555 µM) | >40 days |  | 94 ± 1% | >0.5 mM | In % (percent inhibition of alanine racemase) [2, 11]: 90 ± 5%; In % (percent inhibition of alanine racemase) [3, 12]: 91 ± 3%; MIC [5]: >5 mM
NC(=O)OCC(N)C(=O)NO (stereo not shown) [H2NCH(CH2OCONH2)C(O)NILIOH] |  |  |  |  | 56 µM |  |  |  | 97 ± 5% | 94 ± 5% | 30 µM | 96 ± 8% | 8 µM | 93 ± 4% | > 5 mM |  |  | > 5 mM |  |  | 
NC(CO)C(=O)NO (stereo not shown) [H2NCH(CH2OH)C(O)NHOH] |  |  |  |  | 7200 µM |  |  | 33% | 33 ± 8% | 28 ± 5% | 5100 µM | 0% |  | 19 ± 8% | > 5 mM | 100 µg/mL (≈ 833 µM) | 21.5 days | > 5 mM |  |  | 
NCC(=O)NO [H2NOH2G(O)NHOH] |  |  |  |  | 34 µM |  |  |  | 100 ± 2% |  | 33 µM |  | 75 µM |  |  |  |  |  | 90 ± 2% | >5 mM | In % (percent inhibition of alanine racemase) [2, 11]: 90 ± 4%; In % (percent inhibition of alanine racemase) [3, 12]: 92 ± 3%; MIC [5]: >5 mM
Cl.NCC(=O)NO [HCl•H2NCH2C(O)NHOH, Glycine Hydroxamic Acid Hydrochloride] | 201 µM | 114 ± 14% | 268 µM | 88 ± 4% |  | 95 ± 1% | > 5 mM | 100% | 105 ± 6% |  |  |  |  |  |  |  |  |  |  | >5 mM | Ki ([3]; Ki): 217 µM; MIC ([7]; Mycobacterium tuberculosis): 200 µg/mL; Days of Detection [8]: 16.5 days
Cl.NCCC(=O)NO [HCl•H2NCH2CH2C(O)NHOH, β-Alanine Hydroxamic Acid Hydrochloride] | 894 µM | 34 ± 9% | 1210 µM | 37 ± 10% |  | 49 ± 12% | > 5 mM | 79% | 79 ± 12% |  |  |  |  |  |  |  |  |  |  |  | Ki ([3]; Ki): 401 µM; MIC ([4]; Staphylococcus aureus): > 5 mM; MIC ([7]; Mycobacterium tuberculosis): > 200 µg/mL; melting point: 140 to 142 °C; Days of Detection [8]: 8.5 days
C[C@H](N)C(=O)NO.Cl [HCl•H2NCH(CH3)C(O)NHOH*, L-Alanine Hydroxamic Acid Hydrochloride] | 1060 µM | 33 ± 2% | 2780 µM | 39 ± 8% |  | 32 ± 8% | > 5 mM |  |  |  |  |  |  |  |  |  |  |  |  |  | Ki ([3]; Ki): 1300 µM; MIC ([4]; Staphylococcus aureus): > 5 mM; melting point: 178 to 180 °C
C[C@@H](N)C(=O)NO [Hcl•H2NCH(CH3)C(O)NHOH, D-Alanine Hydroxamic Acid Hydrochloride] | 1010 µM | 29 ± 6% | 5200 µM | 35 ± 7% |  | 33 ± 6% | > 5 mM |  |  |  |  |  |  |  |  |  |  |  |  |  | Ki ([3]; Ki): 2680 µM; MIC ([4]; Staphylococcus aureus): > 5 mM
CC(N)C(=O)NO (stereo not shown) [HzNGH(~Ha)G(O)NHOH] |  |  |  |  | 810 µM |  |  |  | 48 ± 9% | 66 ± 3% | 656 µM | 58 ± 2% | 756 µM | 57 ± 4% | > 5 mM |  |  | > 5 mM |  |  | 
CONC(=O)CN.O=C(O)C(F)(F)F [TFA•H2NCH2C(O)NHOCH3, O-Methylglycine Hydroxamic Acid Trifluoroacetic Acid] |  |  |  |  | 1850 µM |  |  | 66% | 66% | 55% | 1510 µM | 67% | 1340 µM | 47% | > 5 mM | 50 µg/mL | >40 days | > 5 mM |  |  | 
NCC(=O)NO [TFA•H2NCH2G(O)NHOH, glycine hydroxamic trifluoracetic acid] |  |  |  |  | 23 µM |  |  |  | 104 ± 4% |  | 20 µM | 94 ± 4% | 78 µM | 99 ± 3% |  |  |  |  | 112 ± 7% | >5 mM | MIC [5]: >5 mM
N,O-Methylglycine Hydroxamic Acid Trifluoroacetic Acid [TFA•H2NCH2C(O)N(CH3)OCH3] |  |  |  |  | 590 µM |  |  | 66% | 66 ± 4% |  | 633 µM |  | 875 µM |  |  |  |  |  | 68 ± 5% | >5 mM | In % (percent inhibition of alanine racemase) [2, 11]: 49 ± 2%; In % (percent inhibition of alanine racemase) [3, 12]: 66 ± 3%; MIC [5]: >5 mM; Ki [6]: 644 µM; MIC [7]: >200 µg/mL; Days of Detection [8]: 9 days
N-Benzylglycine Hydroxamic Acid [PhCH2NHCH2C(O)NHOH] |  |  |  |  | 1980 µM |  |  | 88% | 88 ± 3% |  | 1240 µM |  | 1840 µM |  |  |  | 18.5 days |  | 39 ± 9% | >5 mM | In % (percent inhibition of alanine racemase) [2, 11]: 0.58 ± 3%; In % (percent inhibition of alanine racemase) [3, 12]: 53 ± 13%; MIC [5]: >5 mM; Ki [6]: 519 µM; MIC ([7]; MGIT Assay): 50 µg/mL

— patent US7662856B2, “Compositions having antimycrobial activity including a hydroxamate or a hydroxamate and a hydroxlyamine” (The University of Houston System, priority 2003, dated 2010)
